In US20110318380A1, “MHC Multimers in Cancer Vaccines and Immune Monitoring” (priority 2008, published 2011):
Like-named read-outs stand apart in the source and are kept apart here. Blank lines part the entries; values can stand above or below the substance they belong to.

Tests used:
T2 cells = settings: cited from earlier work
[1] = biological target: purified folded MHC-complex (Example 37)
[2] = tested on: PBL from a breast cancer patient; settings: with vs without peptide; in doublets; cited from earlier work
[3] = biological target: Bcl-X(L)173-182 specific CD8 T cells in PBL from a breast cancer patient; experiment: flow cytometry of PBL ex vivo, APC dextramer with 7-AAD, CD3 and CD8; compared with an HIV specific dextramer as negative control

Substance: GLQHWVPEL (Irrelevant peptide) [BA4697-105, irrelevant peptide loaded on T2 target cells, reference compound]
lysis of peptide-pulsed T2 cells (T2 cells; Clone 8, 9, 10, 11, and 12): without killing

Substance: W6/32 mouse-anti-HLA-ABC antibody (Dako M0736)
OD450 ratio to the negative control β2m [1]: > 6 fold

Substance: YLNDHLEPWI (listed as Homo Sapiens)
number of spots (IFN-gamma producing T-cells) [2]: clearly shows the presence of BclX(L) specific T-cells
lysis of peptide-pulsed T2 cells (T2 cells; Clone 7, 13, 15, 17, and 18): did not show specific lysis
lysis of peptide-pulsed T2 cells (T2 cells; Clone 8, 9, 10, 11, and 12): effectively lysed
cell lysis of T2 cells pulsed with different concentrations of peptide (T2 cells; clone 9, E:T ratio 1:1): significant even at low concentrations
cell lysis of peptide-pulsed T2 cells (T2 cells; clone 9, specific vs irrelevant peptide, three E:T ratios): necessary to get killing of the target cell

level of dextramer positive CD-8 cells in the patient sample [3]: 0.03%
Substance: dextramer complex HLA-A2/Bcl-X(L)173-182-APC (from UniProt P61769 21-119) (peptide-MHC)
